For assay [1], the target named is T1, LRH-1 LBD (Homo sapiens, UniProt O00482).
T1 construct: LRH-1 LBD (residues 299-541) in the pMSC7 vector; His tag; made in house; host or cells: BL21 (DE3) pLysS E. coli
Nature of the assay: FP competition (binding) assay. To be noted: interval in brackets in the cell.

A further assay addresses T2, LRH-1 (Homo sapiens, UniProt O00482).
T2 construct: The transfected plasmids included full-length LRH-1 in a pCI vector (5 ng/well); expressed in transfected cells; host or cells: HeLa cells
Kind of assay: Luciferase reporter (activation) assay in HeLa cells transfected with full-length LRH-1 and SHP-luc reporter. The conditions noted are these: 24 hours treatment, interval in brackets in the cell. In kind it is cell-based. The procedure:
HeLa cells were seeded at a density of 10,000 cells per well in white-walled, clear-bottomed 96-well culture plates. The next day, cells were transfected with LRH-1 and reporters, using Fugene™ HD (Roche; Indianapolis, IN) at a ratio of 5:2 Fugene™ (μl): DNA (μg). The transfected plasmids included full-length LRH-1 in a pCI vector (5 ng/well), and a SHP-luc reporter, encoding the LRH-1 response element and surrounding sequence from the SHP promoter cloned upstream of firefly luciferase in the pGL3 basic vector (50 ng/well). Cells were also co-transfected with a constitutive Renilla luciferase reporter (utilizing the CMV promoter), which was used for normalization of firefly signal (1 ng/well). Control cells received pCI empty vector at 5 ng/well in place of LRH-1-pCI. Agonists were dissolved in DMSO and then diluted into media, with a final concentration of 0.3% DMSO in all wells. Luciferase signal was quantified using the DualGlo™ kit (Promega; Madison, WI). Experiments were conducted at least two times in triplicate. Compounds were synthesized and evaluated in biological assays.

Assay [2] addresses T1, LRH-1 LBD. Nature of the assay: Thermal stability assay (Tycho NT.6) of LRH-1 LBD complexed with ligands. The assay is classed as binding. The conditions noted are these: LRH-1 LBD with 5-fold molar excess of ligand; for Inflection Point (Thermal Stability), shift in parentheses: value in parentheses. Here is the method: Thermal shift was also assessed for each of the compounds to determine the protein thermal stability. Thermal stability of the LRH-1 LBD complexed with ligands was determined using a Tycho NT.6 Nanotemper. The LRH-1 LBD was incubated with 5-fold molar excess of ligand (final DMSO concentration was 1.4%) overnight at 4° C. in assay buffer (150 mM NaCl, 20 mM Tris-HCl, and 5% glycerol (pH 7.4)). Complexes were centrifuged at high speed for five minutes and then loaded into capillaries. Tryptophan/tyrosine fluorescence was monitored at wavelengths of 330 nm and 350 nm over a 30° C./min gradient (35° C.-95° C.). The inflection point was determined with Tycho NT.6 software. Two separate experiments were conducted in triplicate.

A further assay concerns hepatic LRH-1. Kind of assay: Liver target gene expression in H-mLRH-1 mice (RNA-seq, RT-qPCR). The conditions noted are these: 30 mg/Kg IP injection. The assay is classed as in vivo. Here is the method:
FIGS. 2A, 2B, and 2C show the target gene expression driven by 6N-10CA-ME. FIG. 2A is a Volcano Plot showing RNA-seq of H-mLRH-1 mice treated with 3 mg/Kg of 6N-10CA-ME via an intraperitoneal injection. FIG. 2B is a Volcano Plot showing RNA-seq of H-mLRH-1 mice treated with 30 mg/Kg of 6N-10CA-ME via an intraperitoneal injection. FIG. 2C is a RT-qPCR showing target gene expression at 3 and 30 mg/kg doses.
The tissue distribution of compounds as described herein and the dosage needed for the in vivo activation of hepatic LRH-1 were evaluated. For these studies, H-mLRH-1 mice (male and female; 10 weeks of age) were used. A single dose time course experiment was conducted in which different cohorts of H-mLRH-1 mice (n=6) were given a high dose (i.e., 30 mg/kg compound) via oral and intraperitoneal (IP) delivery. Liver tissue was harvested and the gene expression of Cyp7a1, Scarb1, ApoA4, and Shp was measured using standard qPCR methods at 1, 3, 6, 12, and 24 hrs. The time of peak target gene expression for a dose finding study was selected. Different cohorts of H-mLRH-1 mice were given 6 doses of the compounds using a half-log scale (i.e., 0, 0.003, 0.03, 0.3, 3, and 30 mg/kg) via oral or IP delivery. Collected liver tissue was used to monitor the expression of the genes listed above.
(In general: In qPCR the cycle at which signal appears reflects the starting amount.)

The target in a further assay is SF-1 (Homo sapiens, UniProt Q13285). Kind of assay: SF-1 LUC-reporter gene activation in cultured cells. In kind it is cell-based. For orientation: A reporter such as luciferase makes a cellular process visible.
Assay [3] concerns other nuclear receptors (NRs). Kind of assay: Nuclear receptor cross-reactivity in reporter cells. The conditions noted are these: 2 μM in reporter cells; normalized to reference agonist for each receptor. In kind it is cell-based. The procedure: 6N-10CA-ME was introduced to reporter cells at 2 μM and the activity of respective NRs was tested. Data are normalized relative to activity induced by the appropriate reference agonist for each receptor.
SF-1 activity was assessed using RT-qPCR for target genes (e.g., Star, Fdps, Hmgcr), though morphological/histological examination of these organs and by monitoring circulating levels of cortisol, aldosterone and androsterone using targeted LC/MS/MS.

In assay [4] the test system is H-mLRH-1 mice with diet-induced obesity. Kind of assay: Diet-induced obesity (HFD) model, glucose tolerance. The assay is classed as in vivo. The conditions noted are these: HFD (60% fat) mice, 3 mg/kg, intraperitoneal daily from 12 to 16 weeks of HFD. The procedure: Male and female mice were treated with 6N-10CA-ME via an intraperitoneal injection starting at 12 weeks of High Fat Diet (HFD; 60% fat) feeding and continuing daily to 16 weeks of HFD feeding. (Panel A) Summary of body weights of mice in each group at 0, 12, and 16 weeks of HFD feeding. (Panels B and C) Fasting blood glucose (mg/dL) levels of mice in each group at 12 and 16 weeks of HFD feeding. (Panel D) Glucose tolerance tests (GTT) following administration of glucose (2 g/kg) at 12 and 16 weeks of HFD feeding. (Panel E) Area under the curve (AUC) summary of GTT at 12 and 16 weeks of HFD feeding. Data are represented as means+/−SEM. Sample size is 6-17 per group. **** p<0.0001 vs. chow. Data were analyzed with a two-way ANOVA with Tukey multiple comparison test.
In this study, a mouse model of DIO was used to evaluate the in vivo efficacy of the compounds as described herein, including the ability of the compounds to (1) attenuate hepatic steatosis and (2) improve glucose tolerance and insulin resistance.
H-mLRH-1 mice (male and female) were fed one of the following diets (OpenSource Diets) for 16 weeks starting at 8 weeks of age: (1) Control Diet (10% fat diet, D12450Ji) or (2) High Fat Diet (HFD, 60% fat; D12492i). […]

The test system of the next assay is diabetic mice. To be noted: diabetic mice fed DLPC; Lee et al. Nature 2011; cited from earlier work.

T2 sequence (O00482 whole entry): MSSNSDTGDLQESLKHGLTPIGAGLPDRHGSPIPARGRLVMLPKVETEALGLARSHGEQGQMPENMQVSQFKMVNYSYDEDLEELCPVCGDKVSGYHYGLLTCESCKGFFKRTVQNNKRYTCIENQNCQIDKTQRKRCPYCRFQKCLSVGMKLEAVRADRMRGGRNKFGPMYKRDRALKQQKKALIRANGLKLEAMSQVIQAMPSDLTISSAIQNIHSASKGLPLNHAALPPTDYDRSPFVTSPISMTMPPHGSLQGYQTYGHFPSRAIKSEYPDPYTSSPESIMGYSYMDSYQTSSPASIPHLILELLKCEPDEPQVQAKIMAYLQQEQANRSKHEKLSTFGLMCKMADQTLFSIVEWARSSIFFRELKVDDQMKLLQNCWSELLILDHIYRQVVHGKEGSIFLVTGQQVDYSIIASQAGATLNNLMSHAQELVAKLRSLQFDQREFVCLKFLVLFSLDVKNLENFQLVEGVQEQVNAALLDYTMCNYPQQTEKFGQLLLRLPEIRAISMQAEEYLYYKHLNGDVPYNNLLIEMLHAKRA
T1 sequence (O00482 299-541): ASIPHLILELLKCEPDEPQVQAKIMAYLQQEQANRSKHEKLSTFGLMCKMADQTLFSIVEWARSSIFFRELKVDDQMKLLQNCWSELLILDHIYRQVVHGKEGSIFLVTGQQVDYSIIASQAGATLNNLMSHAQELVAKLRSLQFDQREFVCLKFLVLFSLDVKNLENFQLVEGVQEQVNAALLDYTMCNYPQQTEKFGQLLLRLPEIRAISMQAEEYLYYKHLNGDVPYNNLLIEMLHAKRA
Sequence of SF-1 (Q13285 whole entry): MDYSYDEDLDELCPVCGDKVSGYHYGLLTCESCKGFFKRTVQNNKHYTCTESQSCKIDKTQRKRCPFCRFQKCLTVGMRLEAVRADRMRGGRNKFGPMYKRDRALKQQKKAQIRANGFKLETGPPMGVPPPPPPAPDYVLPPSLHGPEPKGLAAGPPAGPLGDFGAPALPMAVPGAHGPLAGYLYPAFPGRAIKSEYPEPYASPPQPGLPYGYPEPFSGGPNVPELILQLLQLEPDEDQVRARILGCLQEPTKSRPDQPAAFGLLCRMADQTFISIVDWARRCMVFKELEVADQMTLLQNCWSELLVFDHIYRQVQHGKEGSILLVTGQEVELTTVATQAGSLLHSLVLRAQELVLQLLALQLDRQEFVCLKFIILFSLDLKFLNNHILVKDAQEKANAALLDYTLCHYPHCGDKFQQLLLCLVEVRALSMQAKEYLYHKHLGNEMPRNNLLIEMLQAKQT

For orientation: Ki means a measure of affinity in units of concentration, obtained from inhibition or displacement. A high value points to lower affinity. A word on the EC50: it is the concentration giving half of the maximal effect. Read a low EC50 as higher potency in that assay. Turning to `C=C(c1ccccc1)C12CCC(NS(N)(=O)=O)C1CC(CCCCOCCCCC(=O)O)=C2c1ccccc1` (stereo not drawn) [Compound 6N-10CA-ME, 5-(4-(3-phenyl-3a-(1-phenylvinyl)-6-(sulfamoylamino)-1,3a,4,5,6,6a-hexahydropentalen-2-yl)butoxy) pentanoic acid], the Ki at LRH-1 LBD [1] was 12 nM. Moreover, on LRH-1, the response was half-maximal at 50 nM (EC50). In addition, at LRH-1 LBD [2], the “Inflection Point (Thermal Stability)” value turned out to be 65 °C and the “Inflection Point (Thermal Stability), shift in parentheses” value is “+9.9 °C”. Further, the “Liver target gene expression” value with hepatic LRH-1 is “elevation of Cyp7a1 and Apoa4 and a reduction in Fasn”. In addition, the “SF-1 activity (LUC-reporter gene activation)” value at SF-1 is reported as “displays SF-1 activity”. The “Cross-reactivity with other nuclear receptors” value in assay [3] is reported as “minimal cross-reactivity”. Further, the Glucose intolerance result in assay [4] was “reduces glucose intolerance”.
Take `C=C(c1ccccc1)C12CCC(NS(N)(=O)=O)C1CC(CCOCCCOCCC(=O)O)=C2c1ccccc1` (stereo not drawn) [Compound 6N-10CA-DE, 3-(3-(2-(3-phenyl-3a-(1-phenylvinyl)-6-(sulfamoylamino)-1,3a,4,5,6,6a-hexahydropentalen-2-yl)ethoxy)propoxy) propanoic acid]: affinity on LRH-1 LBD [1] was put at a Ki of 480 nM. Further, at LRH-1, a half-maximal effect (EC50) was put at 1200 nM. Moreover, at LRH-1 LBD [2], the “Inflection Point (Thermal Stability)” value came to 61 °C and the “Inflection Point (Thermal Stability), shift in parentheses” value was “+5.9 °C”.
The matching figures for `C=C(c1ccccc1)C12CCC(O)C1CC(CCOCCCOCCC(=O)O)=C2c1ccccc1` (stereo not drawn) [Compound 10CA-DE, 3-(3-(2-(6-hydroxy-3-phenyl-3a-(1-phenylvinyl)-1,3a,4,5,6,6a-hexahydropentalen-2-yl)ethoxy)propoxy) propanoic acid]: 10000 nM, 3200 nM, 57 °C and “+1.9 °C”.
The matching figures for `C=C(c1ccccc1)C12CCC(O)C1CC(CCCCOCCCCC(=O)O)=C2c1ccccc1` (stereo not drawn) [Compound 10CA-ME, 5-(4-(6-hydroxy-3-phenyl-3a-(1-phenylvinyl)-1,3a,4,5,6,6a-hexahydropentalen-2-yl)butoxy) pentanoic acid]: 110 nM, 870 nM, 59 °C and “+3.9 °C”.
On to `CCCCCCCCCCCC(=O)OC[C@H](COP(=O)([O-])OCC[N+](C)(C)C)OC(=O)CCCCCCCCCCC` [DLPC, dilauroyl-phosphatidylcholine], for which the “Glucose tolerance and hepatic fat accumulation” value with diabetic mice is “improved glucose tolerance and reduced hepatic fat accumulation”.

The record behind these values is patent US20260176228A1, “MODULATORS OF LIVER RECEPTOR HOMOLOGUE 1 (LRH-1) AND USES” (Emory University, priority 2022, published 2026).
